Assay results: article PMC10622836, “Crystal structure of histone deacetylase 6 complexed with (R)-lipoic acid, an essential cofactor in central carbon metabolism” (The Journal of Biological Chemistry, 2023)

Target: T1, HDAC6 (histone deacetylase 6) (Danio rerio, UniProt F8W4B7)
T1 construct: catalytic domain 2
T1 sequence (F8W4B7 440-798 limits assumed): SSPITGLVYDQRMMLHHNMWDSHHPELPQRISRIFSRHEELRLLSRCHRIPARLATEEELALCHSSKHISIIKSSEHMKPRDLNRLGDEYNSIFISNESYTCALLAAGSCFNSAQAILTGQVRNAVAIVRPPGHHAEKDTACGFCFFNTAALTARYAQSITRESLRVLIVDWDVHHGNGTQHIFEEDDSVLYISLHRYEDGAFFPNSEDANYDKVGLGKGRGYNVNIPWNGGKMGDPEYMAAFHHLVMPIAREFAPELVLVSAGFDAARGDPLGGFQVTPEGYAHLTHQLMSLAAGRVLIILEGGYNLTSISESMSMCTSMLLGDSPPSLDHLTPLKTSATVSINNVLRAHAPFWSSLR
Experiment: X-ray crystal structure ([…] Å) and ITC
Type: binding

- Kd: 350 nM
SMILES: O=C(O)CCCC[C@@H](S)CCS [(R)-dihydrolipoic acid]
